# Test system: Croton bug
# Assay: Physiological activity (Croton bug repellency) test, Test Example 5
# Format: in vivo
# Conditions: 3% solution in 1:1 hexane/acetone
# From the text: A fraction 1 (16.192 g) of copaiba oil was given by silica gel column chromatography (replenishment silica gel: BW-127ZH, 350 g) using 3 liter of hexane as an elution solvent. A fraction 2 (2.868 g) was given by silica gel column chromatography (same as above) using a 4:4:1 mixture of hexane/chloroform/ethyl acetate as an elution solvent. A fraction 3 (1.401 g) was given by fractionating the remnant of the fraction 2 using a 1:1 solvent mixture of ethyl acetate/chloroform 21 as an elution solvent.
# For comparison, the same test was conducted using copaiba oil and β-caryophyllene. The specimen was a 3% solution in the solvent. The solution was given using a 1:1 (volume ratio) mixture of hexane and acetone.
structure (smiles),measurement,setting,value
C=C1CC/C=C(\C)CC[C@@H]2[C@@H]1CC2(C)C [β-caryophyllene],Repellency ratio (%) with time,4 hours,96.2%
same,Repellency ratio (%) with time,24 hours,70.6%
same,Repellency ratio (%) with time,48 hours,52.6%

# Reference: US20060257441A1, “Natural essential oil sanitary insect pest repellent and its use” (SUZUKI YUSHI INDUSTRIAL CO., LTD., priority 2005, published 2006)
